Test: xn = mol fraction of the nth substance listed

CCCCCOC(C)=O + CCCCOC(C)=O
298.15 K, 101.33 kPa
Conditions | viscosity [mPa·s]
x2 = 0.1116 | 0.834
x2 = 0.2559 | 0.81
x2 = 0.3941 | 0.787
x2 = 0.5285 | 0.76
x2 = 0.6578 | 0.738
x2 = 0.7859 | 0.715
x2 = 0.9088 | 0.694

C=CC(=O)OC + CCCCn1cc[n+](C)c1.F[B-](F)(F)F
303.15 K, 101 kPa
Conditions | viscosity [mPa·s]
x2 = 0.5005 | 16.06
x2 = 0.9242 | 63.95

CN(C)CCO + CCCCn1cc[n+](C)c1.F[P-](F)(F)(F)(F)F
viscosity [mPa·s], 101 kPa
Conditions | x1 = 0.1221 | x1 = 0.2143 | x1 = 0.3182 | x1 = 0.4405 | x1 = 0.5166 | x1 = 0.605 | x1 = 0.709 | x1 = 0.8063 | x1 = 0.9128
293.15 K | – | – | 87.91 | 60.57 | 47.58 | 34.73 | – | – | 7.95
298.15 K | – | 88.45 | 66.23 | 45.68 | 36.09 | 27.08 | – | – | 6.67
303.15 K | – | 67.51 | 50.77 | 35.67 | 28.45 | – | – | – | 5.64
308.15 K | 67.28 | 52.1 | 39.24 | 27.9 | – | – | – | 7.99 | 4.78
313.15 K | 52.9 | 41.46 | 31.33 | – | – | – | 9.84 | 6.74 | 4.13
318.15 K | 42.39 | 33.36 | 25.47 | – | – | – | 8.35 | 5.74 | 3.59
323.15 K | 35.09 | 27.71 | – | – | – | 9.86 | 7.12 | 4.99 | 3.18

C=CC(=O)OC + CCCO
viscosity [mPa·s], 101.33 kPa
Conditions | 308.15 K | 318.15 K
x1 = 0.0501 | 1.354 | 1.107
x1 = 0.1464 | 1.081 | 0.916
x1 = 0.2331 | 0.9 | 0.782
x1 = 0.3469 | 0.727 | 0.648
x1 = 0.4436 | 0.622 | 0.561
x1 = 0.5011 | 0.572 | 0.519
x1 = 0.5436 | 0.541 | 0.492
x1 = 0.6429 | 0.483 | 0.439
x1 = 0.7442 | 0.441 | 0.397
x1 = 0.8449 | 0.413 | 0.365
x1 = 0.9424 | 0.396 | 0.343

CCCCCC + CCCO
viscosity [mPa·s]
Conditions | 298.15 K | 308.15 K
100 kPa, x1 = 0.0603 | 1.619 | –
100 kPa, x1 = 0.0992 | 1.44 | –
100 kPa, x1 = 0.2086 | 1.07 | –
100 kPa, x1 = 0.4056 | 0.6737 | –
100 kPa, x1 = 0.5016 | 0.5493 | –
100 kPa, x1 = 0.5979 | 0.4564 | –
100 kPa, x1 = 0.7014 | 0.3861 | –
100 kPa, x1 = 0.8029 | 0.3467 | –
100 kPa, x1 = 0.9039 | 0.3116 | –
100 kPa, x1 = 0.9486 | 0.3029 | –
100 kPa, x2 = 0.0679 | 0.3219 | 0.2901
100 kPa, x2 = 0.1319 | 0.3383 | 0.3038
100 kPa, x2 = 0.2357 | 0.3688 | 0.3515
100 kPa, x2 = 0.3681 | 0.4378 | 0.3916
100 kPa, x2 = 0.4848 | 0.5309 | 0.4635
100 kPa, x2 = 0.5884 | 0.6557 | 0.5724
100 kPa, x2 = 0.6811 | 0.8015 | 0.6603
100 kPa, x2 = 0.7644 | 0.998 | 0.8293
100 kPa, x2 = 0.8398 | 1.172 | 0.9551
100 kPa, x2 = 0.9083 | 1.427 | 1.177
100 kPa, x2 = 0.9708 | 1.762 | 1.427
101.33 kPa, x2 = 0.1148 | 0.34 | –
101.33 kPa, x2 = 0.1407 | 0.345 | –
101.33 kPa, x2 = 0.2154 | 0.369 | –
101.33 kPa, x2 = 0.3704 | 0.451 | –
101.33 kPa, x2 = 0.5278 | 0.603 | –
101.33 kPa, x2 = 0.6309 | 0.75 | –
101.33 kPa, x2 = 0.7618 | 1.038 | –
101.33 kPa, x2 = 0.8626 | 1.349 | –
101.33 kPa, x2 = 0.9594 | 1.756 | –

From the CheMixHub viscosity set
